Measured values from ChEMBL document CHEMBL3792365, “Dioxol and dihydrodioxin analogs of 2- and 3-phenylacetonitriles as potent anti-cancer agents with nanomolar activity against a variety of human cancer cells” (2016).

What was measured:
Assay type in all cases: functional
[1] = Growth inhibition of human SNB75 cells at 10 uM after 48 hrs by sulforhodamine B assay; conditions: SNB-75, 48 h, values are per cent of control
U-251 = assay: Growth inhibition of human U251 cells at 10 uM after 48 hrs by sulforhodamine B assay; conditions: U-251, 48 h, values are per cent of control
[2] = Growth inhibition of human LOXIMVI cells at 10 uM after 48 hrs by sulforhodamine B assay; conditions: LOX IMVI, values are per cent of control
M14 = assay: Growth inhibition of human M14 cells at 10 uM after 48 hrs by sulforhodamine B assay; conditions: M14, 48 h, values are per cent of control
MDA-MB-435 = assay: Growth inhibition of human MDA-MB-435 cells at 10 uM after 48 hrs by sulforhodamine B assay; conditions: MDA-MB-435, 48 h, values are per cent of control
SK-MEL-2 = assay: Growth inhibition of human SK-MEL-2 cells at 10 uM after 48 hrs by sulforhodamine B assay; conditions: SK-MEL-2, 48 h, values are per cent of control
SK-MEL-28 = assay: Growth inhibition of human SK-MEL-28 cells at 10 uM after 48 hrs by sulforhodamine B assay; conditions: SK-MEL-28, 48 h, values are per cent of control
[3] = Growth inhibition of human UACC62 cells at 10 uM after 48 hrs by sulforhodamine B assay; conditions: UACC-62, 48 h, values are per cent of control
[4] = Growth inhibition of human IGROV1 cells at 10 uM after 48 hrs by sulforhodamine B assay; conditions: IGROV-1, 48 h, values are per cent of control
[5] = Growth inhibition of human OVCAR4 cells at 10 uM after 48 hrs by sulforhodamine B assay; conditions: OVCAR-4, 48 h, values are per cent of control
[6] = Growth inhibition of human OVCAR5 cells at 10 uM after 48 hrs by sulforhodamine B assay; conditions: OVCAR-5, 48 h, values are per cent of control
A498 = assay: Growth inhibition of human A498 cells at 10 uM after 48 hrs by sulforhodamine B assay; conditions: A498, 48 h, values are per cent of control
[7] = Growth inhibition of human Caki1 cells at 10 uM after 48 hrs by sulforhodamine B assay; conditions: CAKI-1, 48 h, values are per cent of control
SN12C = assay: Growth inhibition of human SN12C cells at 10 uM after 48 hrs by sulforhodamine B assay; conditions: values are per cent of control
[8] = Growth inhibition of human TK10 cells at 10 uM after 48 hrs by sulforhodamine B assay; conditions: TK-10, 48 h, values are per cent of control
[9] = Growth inhibition of human UO31 cells at 10 uM after 48 hrs by sulforhodamine B assay; conditions: UO-31, 48 h, values are per cent of control
[10] = Growth inhibition of human DU145 cells at 10 uM after 48 hrs by sulforhodamine B assay; conditions: DU-145, 48 h, values are per cent of control
MDA-MB-231 = assay: Growth inhibition of human MDA-MB-231 cells at 10 uM after 48 hrs by sulforhodamine B assay; conditions: MDA-MB-231, 48 h, values are per cent of control
[11] = Growth inhibition of human Hs 578T cells at 10 uM after 48 hrs by sulforhodamine B assay; conditions: values are per cent of control
[12] = Growth inhibition of human BT549 cells at 10 uM after 48 hrs by sulforhodamine B assay; conditions: BT-549, 48 h, values are per cent of control
T47D = assay: Growth inhibition of human T47D cells at 10 uM after 48 hrs by sulforhodamine B assay; conditions: values are per cent of control
MDA-MB-468 = assay: Growth inhibition of human MDA-MB-468 cells at 10 uM after 48 hrs by sulforhodamine B assay; conditions: MDA-MB-468, 48 h, values are per cent of control
K562 = assay: Growth inhibition of human K562 cells at 10 uM after 48 hrs by sulforhodamine B assay; conditions: K562, 48 h, values are per cent of control
A549 = assay: Growth inhibition of human A549/ATCC cells at 10 uM after 48 hrs by sulforhodamine B assay; conditions: A549, 48 h, values are per cent of control
[13] = Growth inhibition of human HOP62 cells at 10 uM after 48 hrs by sulforhodamine B assay; conditions: HOP-62, 48 h, values are per cent of control
NCI-H226 = assay: Growth inhibition of human NCI-H226 cells at 10 uM after 48 hrs by sulforhodamine B assay; conditions: NCI-H226, 48 h, values are per cent of control
NCI-H23 = assay: Growth inhibition of human NCI-H23 cells at 10 uM after 48 hrs by sulforhodamine B assay; conditions: NCI-H23, 48 h, values are per cent of control
NCI-H322M = assay: Growth inhibition of human NCI-H322M cells at 10 uM after 48 hrs by sulforhodamine B assay; conditions: values are per cent of control
NCI-H460 = assay: Growth inhibition of human NCI-H460 cells at 10 uM after 48 hrs by sulforhodamine B assay; conditions: NCI-H460, 48 h, values are per cent of control
NCI-H522 = assay: Growth inhibition of human NCI-H522 cells at 10 uM after 48 hrs by sulforhodamine B assay; conditions: NCI-H522, 48 h, values are per cent of control
[14] = Growth inhibition of human COLO205 cells at 10 uM after 48 hrs by sulforhodamine B assay; conditions: COLO 205, 48 h, values are per cent of control
[15] = Growth inhibition of human HCC2998 cells at 10 uM after 48 hrs by sulforhodamine B assay; conditions: HCC 2998, 48 h, values are per cent of control
[16] = Growth inhibition of human HCT116 cells at 10 uM after 48 hrs by sulforhodamine B assay; conditions: HCT-116, 48 h, values are per cent of control
HT-29 = assay: Growth inhibition of human HT-29 cells at 10 uM after 48 hrs by sulforhodamine B assay; conditions: HT-29, 48 h, values are per cent of control
KM12 = assay: Growth inhibition of human KM12 cells at 10 uM after 48 hrs by sulforhodamine B assay; conditions: KM12, 48 h, values are per cent of control
[17] = Growth inhibition of human SW620 cells at 10 uM after 48 hrs by sulforhodamine B assay; conditions: SW-620, 48 h, values are per cent of control
[18] = Growth inhibition of human SF268 cells at 10 uM after 48 hrs by sulforhodamine B assay; conditions: SF-268, 48 h, values are per cent of control
[19] = Growth inhibition of human SF295 cells at 10 uM after 48 hrs by sulforhodamine B assay; conditions: SF-295, 48 h, values are per cent of control
[20] = Growth inhibition of human SF539 cells at 10 uM after 48 hrs by sulforhodamine B assay; conditions: SF-539, 48 h, values are per cent of control
[21] = Growth inhibition of human SNB19 cells at 10 uM after 48 hrs by sulforhodamine B assay; conditions: SNB-19, 48 h, values are per cent of control

## COc1ccc(/C=C(\C#N)c2ccc3c(c2)OCO3)c(OC)c1
[1]
  growth, % of control at 10 µM: 12.8%
U-251
  growth, % of control at 10 µM: 29.2%
[2]
  growth, % of control at 10 µM: 41%
M14
  growth, % of control at 10 µM: 16.4%
MDA-MB-435
  growth, % of control at 10 µM: -28.6%
SK-MEL-2
  growth, % of control at 10 µM: 2.7%
SK-MEL-28
  growth, % of control at 10 µM: 50.2%
[3]
  growth, % of control at 10 µM: 39.7%
[4]
  growth, % of control at 10 µM: 45.1%
[5]
  growth, % of control at 10 µM: 73.7%
[6]
  growth, % of control at 10 µM: 81.6%
A498
  growth, % of control at 10 µM: 26.5%
[7]
  growth, % of control at 10 µM: 40%
SN12C
  growth, % of control at 10 µM: 53.3%
[8]
  growth, % of control at 10 µM: 49.7%
[9]
  growth, % of control at 10 µM: 46.7%
[10]
  growth, % of control at 10 µM: 63.9%
MDA-MB-231
  growth, % of control at 10 µM: 48.9%
[11]
  growth, % of control at 10 µM: 43.8%
[12]
  growth, % of control at 10 µM: 35.3%
T47D
  growth, % of control at 10 µM: 43.5%
MDA-MB-468
  growth, % of control at 10 µM: 8.3%
K562
  growth, % of control at 10 µM: 15.9%
A549
  growth, % of control at 10 µM: 36.4%
[13]
  growth, % of control at 10 µM: 54%
NCI-H226
  growth, % of control at 10 µM: 73.8%
NCI-H23
  growth, % of control at 10 µM: 59.1%
NCI-H322M
  growth, % of control at 10 µM: 67.6%
NCI-H460
  growth, % of control at 10 µM: 36%
NCI-H522
  growth, % of control at 10 µM: 43.3%
[14]
  growth, % of control at 10 µM: 25.4%
[15]
  growth, % of control at 10 µM: 60.5%
[16]
  growth, % of control at 10 µM: 19.3%
HT-29
  growth, % of control at 10 µM: 10%
KM12
  growth, % of control at 10 µM: 28.1%
[17]
  growth, % of control at 10 µM: 31.9%
[18]
  growth, % of control at 10 µM: 53.1%
[19]
  growth, % of control at 10 µM: 27.1%
[20]
  growth, % of control at 10 µM: 19%
[21]
  growth, % of control at 10 µM: 55.6%

## N#C/C(=C\c1cc(Br)cc(Br)c1)c1ccc2c(c1)OCO2
[1]
  growth, % of control at 10 µM: 77.3%
U-251
  growth, % of control at 10 µM: 99.9%
[2]
  growth, % of control at 10 µM: 97.1%
M14
  growth, % of control at 10 µM: 92.8%
MDA-MB-435
  growth, % of control at 10 µM: 98.7%
SK-MEL-2
  growth, % of control at 10 µM: 88.7%
SK-MEL-28
  growth, % of control at 10 µM: 98.9%
[3]
  growth, % of control at 10 µM: 85.4%
[4]
  growth, % of control at 10 µM: 85.1%
[5]
  growth, % of control at 10 µM: 81.3%
[6]
  growth, % of control at 10 µM: 100%
A498
  growth, % of control at 10 µM: 90.4%
[7]
  growth, % of control at 10 µM: 88.1%
SN12C
  growth, % of control at 10 µM: 94.7%
[8]
  growth, % of control at 10 µM: 96.1%
[9]
  growth, % of control at 10 µM: 76.5%
[10]
  growth, % of control at 10 µM: 94.2%
MDA-MB-231
  growth, % of control at 10 µM: 89.9%
[11]
  growth, % of control at 10 µM: 112%
[12]
  growth, % of control at 10 µM: 91.4%
T47D
  growth, % of control at 10 µM: 82%
MDA-MB-468
  growth, % of control at 10 µM: 103%
K562
  growth, % of control at 10 µM: 96.2%
A549
  growth, % of control at 10 µM: 79.9%
[13]
  growth, % of control at 10 µM: 104%
NCI-H226
  growth, % of control at 10 µM: 115%
NCI-H23
  growth, % of control at 10 µM: 91.5%
NCI-H322M
  growth, % of control at 10 µM: 91.4%
NCI-H460
  growth, % of control at 10 µM: 99.4%
NCI-H522
  growth, % of control at 10 µM: 76.3%
[14]
  growth, % of control at 10 µM: 106%
[15]
  growth, % of control at 10 µM: 90.7%
[16]
  growth, % of control at 10 µM: 82.1%
HT-29
  growth, % of control at 10 µM: 91.1%
KM12
  growth, % of control at 10 µM: 92.4%
[17]
  growth, % of control at 10 µM: 101%
[18]
  growth, % of control at 10 µM: 93.5%
[19]
  growth, % of control at 10 µM: 96.4%
[20]
  growth, % of control at 10 µM: 94.4%
[21]
  growth, % of control at 10 µM: 109%
